#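 Five concentrations, 48 hours, 96-well plates. GI50 = concentration required for 50% inhibition of growth.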 Active and inactive are the calls of the source. Cut-off read from the data, not from the text of the source: active = GI50 up to about 1.1 µM and inactive = higher.
# Tests used:
# Assay in all cases: inhibition of tumour cell growth, NCI panel, 48 h
# [1] = tested on: EKVX
# [2] = tested on: KM12
# [3] = tested on: RPMI-8226
# [4] = tested on: PC-3
# [5] = tested on: ACHN
# [6] = tested on: LOX IMVI
# [7] = tested on: IGROV-1
# [8] = tested on: CCRF-CEM
# [9] = tested on: MOLT-4
# [10] = tested on: OVCAR-3
# [11] = tested on: OVCAR-5
# [12] = tested on: SK-MEL-5
# [13] = tested on: K562
# [14] = tested on: NCI-H460
# [15] = tested on: SK-MEL-28
# [16] = tested on: HCC 2998
# [17] = tested on: HL-60
# [18] = tested on: 786-0
# [19] = tested on: A549
# [20] = tested on: SF-539
# [21] = tested on: RXF 393
# [22] = tested on: HCT-15
# [23] = tested on: SF-268
# [24] = tested on: M14
# [25] = tested on: SNB-19
# [26] = tested on: HT-29
# [27] = tested on: NCI/ADR-RES
# [28] = tested on: A498
# [29] = tested on: Hs-578T
# [30] = tested on: NCI-H23
# [31] = tested on: TK-10
# [32] = tested on: UO-31
# [33] = tested on: SN12C
# [34] = tested on: SK-OV-3
# [35] = tested on: UACC-62
# [36] = tested on: OVCAR-8
# [37] = tested on: U-251
# [38] = tested on: OVCAR-4
# [39] = tested on: MCF7
# [40] = tested on: SNB-75
# [41] = tested on: SR
# [42] = tested on: NCI-H226
# [43] = tested on: BT-549
# [44] = tested on: CAKI-1
# [45] = tested on: SW-620
# [46] = tested on: HOP-92
# [47] = tested on: MDA-MB-435
# [48] = tested on: HCT-116
# [49] = tested on: UACC-257
# [50] = tested on: SK-MEL-2
# [51] = tested on: SF-295
# [52] = tested on: COLO 205
# [53] = tested on: MDA-MB-231
# [54] = tested on: Malme-3M
# [55] = tested on: MDA-N
# [56] = tested on: NCI-H522
# [57] = tested on: DU-145
# [58] = tested on: HOP-62
compound,measurement,setting,value
O=C1CCCC2=C1CC1=C(CCCC1=O)N2c1cccc2ccccc12,GI50,[1],> 100 µM (inactive)
same,GI50,[2],> 100 µM (inactive)
same,GI50,[3],> 100 µM (inactive)
same,GI50,[4],> 100 µM (inactive)
same,GI50,[5],> 100 µM (inactive)
same,GI50,[6],> 100 µM (inactive)
same,GI50,[7],> 100 µM (inactive)
same,GI50,[8],47.3 µM (inactive)
same,GI50,[9],78 µM (inactive)
same,GI50,[10],> 100 µM (inactive)
same,GI50,[11],> 100 µM (inactive)
same,GI50,[12],85.3 µM (inactive)
same,GI50,[13],44 µM (inactive)
same,GI50,[14],> 100 µM (inactive)
same,GI50,[15],> 100 µM (inactive)
same,GI50,[16],> 100 µM (inactive)
same,GI50,[17],17 µM (inactive)
same,GI50,[18],57.1 µM (inactive)
same,GI50,[19],> 100 µM (inactive)
same,GI50,[20],> 100 µM (inactive)
same,GI50,[21],10.9 µM (inactive)
same,GI50,[22],66.7 µM
same,GI50,[23],45.1 µM (inactive)
same,GI50,[24],> 100 µM (inactive)
same,GI50,[25],75 µM (inactive)
same,GI50,[26],> 100 µM (inactive)
same,GI50,[27],> 100 µM (inactive)
same,GI50,[28],> 100 µM (inactive)
same,GI50,[29],33.8 µM (inactive)
same,GI50,[30],52.5 µM (inactive)
same,GI50,[31],> 100 µM (inactive)
same,GI50,[32],> 100 µM (inactive)
same,GI50,[33],> 100 µM (inactive)
same,GI50,[34],> 100 µM (inactive)
same,GI50,[35],64.1 µM (inactive)
same,GI50,[36],69.2 µM (inactive)
same,GI50,[37],61 µM (inactive)
same,GI50,[38],> 100 µM (inactive)
same,GI50,[39],41.1 µM (inactive)
same,GI50,[40],29.1 µM (inactive)
same,GI50,[41],> 100 µM (inactive)
same,GI50,[42],> 100 µM (inactive)
same,GI50,[43],26.8 µM (inactive)
same,GI50,[44],> 100 µM (inactive)
same,GI50,[45],> 100 µM (inactive)
same,GI50,[46],33 µM (inactive)
Cc1cc(N(CCOS(C)(=O)=O)CCOS(C)(=O)=O)ccc1C=O,GI50,[1],3.61 µM (inactive)
same,GI50,[47],11.5 µM (inactive)
same,GI50,[48],28.9 µM (inactive)
same,GI50,[2],14.7 µM (inactive)
same,GI50,[49],11.7 µM (inactive)
same,GI50,[3],4.02 µM (inactive)
same,GI50,[50],21.1 µM (inactive)
same,GI50,[4],20 µM (inactive)
same,GI50,[5],0.379 µM (active)
same,GI50,[6],6.68 µM (inactive)
same,GI50,[7],11.7 µM (inactive)
same,GI50,[8],1.08 µM (active)
same,GI50,[9],1.61 µM (inactive)
same,GI50,[10],6.19 µM (inactive)
same,GI50,[11],6.7 µM (inactive)
same,GI50,[12],7.78 µM (inactive)
same,GI50,[13],9.93 µM (inactive)
same,GI50,[14],0.078 µM (active)
same,GI50,[15],3.68 µM (inactive)
same,GI50,[16],4.65 µM (inactive)
same,GI50,[51],4.35 µM (inactive)
same,GI50,[17],2.98 µM (inactive)
same,GI50,[19],0.979 µM (active)
same,GI50,[20],< 0.01 µM (active)
same,GI50,[22],13.2 µM
same,GI50,[23],6.56 µM (inactive)
same,GI50,[52],1.39 µM (inactive)
same,GI50,[53],28.5 µM (inactive)
same,GI50,[54],7.91 µM (inactive)
same,GI50,[24],3.05 µM (inactive)
same,GI50,[25],10.2 µM (inactive)
same,GI50,[26],4.49 µM (inactive)
same,GI50,[27],11.7 µM (inactive)
same,GI50,[28],1.85 µM (inactive)
same,GI50,[29],18.5 µM (inactive)
same,GI50,[30],3.68 µM (inactive)
same,GI50,[31],2.91 µM (inactive)
same,GI50,[32],2.88 µM (inactive)
same,GI50,[33],1.47 µM (inactive)
same,GI50,[35],2.43 µM (inactive)
same,GI50,[36],10.9 µM (inactive)
same,GI50,[37],8.36 µM (inactive)
same,GI50,[38],18.2 µM (inactive)
same,GI50,[39],1.22 µM (inactive)
same,GI50,[55],11.4 µM (inactive)
same,GI50,[43],15.2 µM (inactive)
same,GI50,[56],0.142 µM (active)
same,GI50,[44],0.127 µM (active)
same,GI50,[45],0.449 µM (active)
same,GI50,[46],9.73 µM (inactive)
C[n+]1c(-c2ccc(/C=N/Nc3ccnc(N/N=C/c4ccc(-c5cn6ccsc6[n+]5C)cc4)n3)cc2)cn2ccsc21,GI50,[1],18.8 µM (inactive)
same,GI50,[47],4.57 µM (inactive)
same,GI50,[57],27.7 µM (inactive)
same,GI50,[2],22.1 µM (inactive)
same,GI50,[49],25.5 µM (inactive)
same,GI50,[3],8.61 µM (inactive)
same,GI50,[50],29.8 µM (inactive)
same,GI50,[4],30.2 µM (inactive)
same,GI50,[5],23.9 µM (inactive)
same,GI50,[7],19.1 µM (inactive)
same,GI50,[8],14.9 µM (inactive)
same,GI50,[9],17.8 µM (inactive)
same,GI50,[10],> 100 µM (inactive)
same,GI50,[11],19.1 µM (inactive)
same,GI50,[12],19.3 µM (inactive)
same,GI50,[13],12.1 µM (inactive)
same,GI50,[14],16.9 µM (inactive)
same,GI50,[16],31.6 µM (inactive)
same,GI50,[18],15.8 µM (inactive)
same,GI50,[19],28.6 µM (inactive)
same,GI50,[20],27 µM (inactive)
same,GI50,[21],21.5 µM (inactive)
same,GI50,[22],27.5 µM
same,GI50,[52],35.4 µM (inactive)
same,GI50,[53],32.7 µM (inactive)
same,GI50,[54],29.9 µM (inactive)
same,GI50,[58],25.9 µM (inactive)
same,GI50,[24],8.81 µM (inactive)
same,GI50,[25],32.8 µM (inactive)
same,GI50,[26],16.9 µM (inactive)
same,GI50,[27],39.7 µM (inactive)
same,GI50,[28],27.9 µM (inactive)
same,GI50,[29],69.5 µM (inactive)
same,GI50,[30],22.9 µM (inactive)
same,GI50,[31],25.8 µM (inactive)
same,GI50,[32],18.8 µM (inactive)
same,GI50,[33],31.5 µM (inactive)
same,GI50,[34],> 100 µM (inactive)
same,GI50,[35],25.1 µM (inactive)
same,GI50,[36],28.9 µM (inactive)
same,GI50,[37],30.9 µM (inactive)
same,GI50,[38],51.9 µM (inactive)
same,GI50,[39],48.4 µM (inactive)
same,GI50,[40],20 µM (inactive)
same,GI50,[41],11.3 µM (inactive)
same,GI50,[42],17.7 µM (inactive)
same,GI50,[55],3.94 µM (inactive)
same,GI50,[43],36.1 µM (inactive)
same,GI50,[56],92.7 µM (inactive)
same,GI50,[44],18.5 µM (inactive)
same,GI50,[45],33 µM (inactive)
same,GI50,[46],31.5 µM (inactive)

# From ChEMBL document CHEMBL1201862, “PubChem BioAssay data set” (2004)
